Assays:
[1] = Stability of the compound of Formula (I) formulated as an aqueous solution; type: physicochemical
Source text: One approach to overcome the observed instability may be to add one or more components that are antioxidants and/or stabilizing agents to the formulation, however the inclusion of further components to a formulation introduces potential reactivity issues between the compound of Formula (I) and these added components. For instance, the addition of an antioxidant may in fact react with the compound of Formula (I) thus potentially changing the structure and function of the compound, which is undesirable.

[2] = Degradation of the compound of Formula (I) when the radiolabelling mixture is mixed at raised temperature; type: physicochemical; conditions: temperatures higher than about 40° C., for example 60° C.; mixture with Cu radioisotope and acetate buffer
Source text: The solution comprising the mixture of the Cu radioisotope, the compound of Formula (I) and the acetate buffer is then allowed to mix for a time and at a particular temperature in order to allow for complexation of the compound of Formula (I) with the Cu radioisotope. The solution may be mixed using an appropriate apparatus. For example, given the small volumes used, an Eppendorf tube may be an appropriate vessel, such that an Eppendorf Thermomixer may be used to both mix and if required, heat the solution. In an embodiment, the solution is mixed at room temperature. In an embodiment, the solution is mixed at about 40° C. […] While a lower temperature of about 21° C., i.e. room temperature, may be used for mixing, the complexation reaction may not be complete at 5 minutes but is completed by about 15 minutes. […] In an embodiment, the solution is mixed at about 40° C. for about 5 minutes. In an embodiment, the solution is mixed at about 40° C. for about 10 minutes. In another embodiment, the solution is mixed at about 40° C. for about 15 minutes. In another embodiment, the solution is mixed at about 21° C. for about 10 minutes. In another embodiment, the solution is mixed at about 21° C. for about 15 minutes.

O=C(O)CCC(NC(=O)NC(CCCCNC(=O)CCCCCCCNC(=O)C(Cc1ccccc1)NC(=O)C(Cc1ccccc1)NC(=O)CCCC(=O)NC12CNCCNCC(NC(=O)CCCC(=O)NC(Cc3ccccc3)C(=O)NC(Cc3ccccc3)C(=O)NCCCCCCCC(=O)NCCCCC(NC(=O)NC(CCC(=O)O)C(=O)O)C(=O)O)(CNCCNC1)CNCCNC2)C(=O)O)C(=O)O (stereo not drawn) [Formula (I), Sar-bisPSMA]
stability of the compound in aqueous solution ([1]; formulated as an aqueous solution, no buffer or stabilizing agent): relatively unstable and prone to oxidation and degradation
stability of the compound in a formulation containing a buffer ([1]; formulation containing a buffer, in the absence of a stabilizing agent): requisite stability
degradation of the compound on heating [2]: some degradation
